Laboratory results published in ChEMBL document CHEMBL1201862, “PubChem BioAssay data set” (2004).
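Grown in 96-well plates, cells were treated for 48 hours with each compound at five concentrations. Insufficient inhibition: endpoint recorded as highest concentration tested. GI50 = concentration required for 50% inhibition of growth.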 Calls of active or inactive are those of the source. No stated cut-off is given here; in the data, active = GI50 up to about 1.1 µM and inactive = higher.

Legend:
Experiment in all cases: inhibition of tumour cell growth, NCI panel, 48 h
A498 = system: A498
CCRF-CEM = system: CCRF-CEM
EKVX = system: EKVX
Hs-578T = system: Hs-578T
KM12 = system: KM12
M14 = system: M14
MOLT-4 = system: MOLT-4
NCI-H460 = system: NCI-H460
NCI/ADR-RES = system: NCI/ADR-RES
OVCAR-4 = system: OVCAR-4
RXF 393 = system: RXF 393
SK-MEL-28 = system: SK-MEL-28
SK-MEL-2 = system: SK-MEL-2
SK-MEL-5 = system: SK-MEL-5
SK-OV-3 = system: SK-OV-3
T47D = system: T47D
U-251 = system: U-251
UACC-62 = system: UACC-62
HCC 2998 = system: HCC 2998
MDA-N = system: MDA-N

N#Cc1c(N)n(C2OC(CO)C(O)C2O)c2ncnc(N)c12 (stereo not drawn)
GI50 (A498): 0.175 µM (active) | GI50 (CCRF-CEM): 0.025 µM (active) | GI50 (EKVX): 0.135 µM (active) | GI50 (Hs-578T): 0.144 µM (active) | GI50 (KM12): 0.0417 µM (active) | GI50 (M14): 0.0617 µM (active) | GI50 (MOLT-4): 0.0248 µM (active) | GI50 (NCI-H460): 0.288 µM (active) | GI50 (NCI/ADR-RES): 0.0243 µM (active) | GI50 (OVCAR-4): 0.049 µM (active) | GI50 (RXF 393): 0.153 µM (active) | GI50 (SK-MEL-28): 0.119 µM (active) | GI50 (SK-MEL-2): 0.0521 µM (active) | GI50 (SK-MEL-5): 0.0653 µM (active) | GI50 (SK-OV-3): 0.0649 µM (active) | GI50 (T47D): 0.0403 µM (active) | GI50 (U-251): 0.114 µM (active) | GI50 (UACC-62): 0.0168 µM (active)

O=C(COc1ccc(OCC(=O)N2C(=O)CS/C2=N\c2ccccc2)cc1)N1C(=O)CS/C1=N\c1ccccc1
GI50 (A498): 60 µM (inactive) | GI50 (EKVX): 32.8 µM (inactive) | GI50 (HCC 2998): 14.9 µM (inactive) | GI50 (KM12): 15.3 µM (inactive) | GI50 (M14): 18.6 µM (inactive) | GI50 (MDA-N): 20.7 µM (inactive) | GI50 (MOLT-4): 14.6 µM (inactive) | GI50 (NCI-H460): 29 µM (inactive) | GI50 (NCI/ADR-RES): 19.5 µM (inactive) | GI50 (OVCAR-4): 33.5 µM (inactive) | GI50 (RXF 393): 30.3 µM (inactive) | GI50 (SK-MEL-28): 5.6 µM (inactive) | GI50 (SK-MEL-2): 25.9 µM (inactive) | GI50 (SK-MEL-5): 11.6 µM (inactive) | GI50 (SK-OV-3): 48.5 µM (inactive) | GI50 (U-251): 31.8 µM (inactive) | GI50 (UACC-62): 8.13 µM (inactive)

COc1ccc(C[C@@H]2CN(C(=O)c3ccccc3)[C@H](Cc3ccc(O)cc3)CN2C(=O)c2ccccc2)cc1Br
GI50 (A498): > 100 µM (inactive) | GI50 (CCRF-CEM): > 100 µM (inactive) | GI50 (EKVX): > 100 µM (inactive) | GI50 (HCC 2998): > 100 µM (inactive) | GI50 (Hs-578T): > 100 µM (inactive) | GI50 (KM12): > 100 µM (inactive) | GI50 (M14): > 100 µM (inactive) | GI50 (MOLT-4): > 100 µM (inactive) | GI50 (NCI-H460): > 100 µM (inactive) | GI50 (NCI/ADR-RES): > 100 µM (inactive) | GI50 (OVCAR-4): > 100 µM (inactive) | GI50 (SK-MEL-28): > 100 µM (inactive) | GI50 (SK-MEL-2): > 100 µM (inactive) | GI50 (SK-OV-3): > 100 µM (inactive) | GI50 (T47D): > 100 µM (inactive)

O=C1/C(=C/c2ccc(O)cc2)CCC1CNc1ccccc1 (stereo not drawn)
GI50 (A498): 17.9 µM (inactive) | GI50 (CCRF-CEM): 1.61 µM (inactive) | GI50 (EKVX): 18.3 µM (inactive) | GI50 (HCC 2998): 18.8 µM (inactive) | GI50 (Hs-578T): 21.5 µM (inactive) | GI50 (KM12): 6.65 µM (inactive) | GI50 (M14): 12.2 µM (inactive) | GI50 (MOLT-4): 1.85 µM (inactive) | GI50 (NCI-H460): 26.3 µM (inactive) | GI50 (NCI/ADR-RES): 19 µM (inactive) | GI50 (OVCAR-4): 19.1 µM (inactive) | GI50 (RXF 393): 20.3 µM (inactive) | GI50 (SK-MEL-28): 15.4 µM (inactive) | GI50 (SK-MEL-5): 16.8 µM (inactive) | GI50 (SK-OV-3): 22.5 µM (inactive) | GI50 (T47D): 10.3 µM (inactive) | GI50 (U-251): 16.4 µM (inactive) | GI50 (UACC-62): 13.1 µM (inactive)

CCCCC(=O)OCC(=O)[C@]1(O)Cc2c(O)c3c(c(O)c2[C@@H](OC2CC(NC(=O)C(F)(F)F)C(O)C(C)O2)C1)C(=O)c1c(OC)cccc1C3=O (stereo partly drawn)
GI50 (A498): 0.247 µM (active) | GI50 (CCRF-CEM): 0.135 µM (active) | GI50 (EKVX): 2.43 µM (inactive) | GI50 (HCC 2998): 1.3 µM (inactive) | GI50 (Hs-578T): 1.73 µM (inactive) | GI50 (KM12): 0.787 µM (active) | GI50 (M14): 0.832 µM (active) | GI50 (MDA-N): 1.15 µM (inactive) | GI50 (MOLT-4): 0.0228 µM (active) | GI50 (NCI-H460): 0.0214 µM (active) | GI50 (OVCAR-4): 2.08 µM (inactive) | GI50 (RXF 393): 0.82 µM (active) | GI50 (SK-MEL-28): 1.73 µM (inactive) | GI50 (SK-MEL-2): 0.962 µM (active) | GI50 (SK-MEL-5): 0.327 µM (active) | GI50 (SK-OV-3): 0.345 µM (active) | GI50 (T47D): 0.54 µM (active) | GI50 (U-251): 0.221 µM (active) | GI50 (UACC-62): 0.184 µM (active)

COc1ccc(C/C=C(\C)CCO)cc1
GI50 (CCRF-CEM): > 100 µM (inactive) | GI50 (EKVX): > 100 µM (inactive) | GI50 (Hs-578T): > 100 µM (inactive) | GI50 (KM12): > 100 µM (inactive) | GI50 (M14): > 100 µM (inactive) | GI50 (MDA-N): > 100 µM (inactive) | GI50 (MOLT-4): > 100 µM (inactive) | GI50 (NCI-H460): > 100 µM (inactive) | GI50 (NCI/ADR-RES): > 100 µM (inactive) | GI50 (OVCAR-4): > 100 µM (inactive) | GI50 (RXF 393): > 100 µM (inactive) | GI50 (SK-MEL-2): > 100 µM (inactive) | GI50 (SK-MEL-5): > 100 µM (inactive) | GI50 (SK-OV-3): > 100 µM (inactive) | GI50 (U-251): > 100 µM (inactive) | GI50 (UACC-62): > 100 µM (inactive)

CCSc1nc(-c2cccs2)nc2ccc(I)cc12
GI50 (CCRF-CEM): > 100 µM (inactive) | GI50 (EKVX): 46.9 µM (inactive) | GI50 (HCC 2998): > 100 µM (inactive) | GI50 (KM12): 72.8 µM (inactive) | GI50 (M14): > 100 µM (inactive) | GI50 (MDA-N): > 100 µM (inactive) | GI50 (MOLT-4): > 100 µM (inactive) | GI50 (NCI-H460): > 100 µM (inactive) | GI50 (NCI/ADR-RES): > 100 µM (inactive) | GI50 (OVCAR-4): > 100 µM (inactive) | GI50 (RXF 393): > 100 µM (inactive) | GI50 (SK-MEL-28): > 100 µM (inactive) | GI50 (SK-MEL-2): > 100 µM (inactive) | GI50 (SK-MEL-5): > 100 µM (inactive) | GI50 (T47D): 1.5 µM (inactive) | GI50 (U-251): > 100 µM (inactive) | GI50 (UACC-62): > 100 µM (inactive)

COC(=O)C1C(O)C(C)C(=O)C(C)/C=C\C=C(C)C(=O)Nc2c(C)c(OC(C)=O)c3c(c2O)C(=O)C(C)=C2OCOC(=C23)C(C)=CC(C)(O)C(O)C(C)C1O (stereo not drawn)
GI50 (A498): 24.9 µM (inactive) | GI50 (CCRF-CEM): 20 µM (inactive) | GI50 (EKVX): 65.2 µM (inactive) | GI50 (HCC 2998): 21 µM (inactive) | GI50 (Hs-578T): 37.4 µM (inactive) | GI50 (KM12): 36.6 µM (inactive) | GI50 (M14): 25.4 µM (inactive) | GI50 (MOLT-4): 29.4 µM (inactive) | GI50 (NCI-H460): 32.7 µM (inactive) | GI50 (NCI/ADR-RES): 46.9 µM (inactive) | GI50 (RXF 393): 31.1 µM (inactive) | GI50 (SK-MEL-28): 27.4 µM (inactive) | GI50 (SK-MEL-2): 25.2 µM (inactive) | GI50 (SK-MEL-5): 14.5 µM (inactive) | GI50 (SK-OV-3): > 100 µM (inactive) | GI50 (T47D): 33.3 µM (inactive) | GI50 (U-251): 96.8 µM (inactive) | GI50 (UACC-62): 21.7 µM (inactive)
